Assay results from patent US20110065734A1, “NOVEL BIFUNCTIONAL COMPOUNDS WHICH INHIBIT PROTEIN KINASES AND HISTONE DEACETYLASES” (4SC AG, priority 2007, published 2011).
Where a name gives a salt, the structure may show the parent alone. Read-outs that look alike come from different tables or passages of the source. Each block holds one molecule with its values, some of them ahead of it.

Experiments:
[1] = system: histone H3 hyperacetylation in HeLa cervical carcinoma cells; assay: Cellular histone H3 hyperacetylation assay; format: cell-based; conditions: Homo sapiens, 24 h, only a range over the listed compounds is given, read-out: Induction of histone H3 hyperacetylation in HeLa cervical carcinoma cells EC50
Description: To assess the cellular efficacy of a histone deacetylase inhibitor in vitro, an assay was set up in black clear-bottom 96-well plates and optimized for use on the Cellomics “ArrayScan II” platform for a quantitative calculation of histone acetylation. The protocol uses a polyclonal rabbit antibody, specifically binding to acetylated lysine 1-20 of human histone H3 on fixed cells with an Alexa Fluor 488 labeled goat anti rabbit-IgG used for counterstaining (Beckers et al. Int J. Cancer 121, 1138, 2007).
5×10^3 HeLa cervical carcinoma cells/well (ATCC. CCL-2) in 200 μl Dulbecco rs modified Eagle's medium (DMEM) containing 10% fetal calf serum are seeded at day 1 in Packard view plates and incubated for 24 h under standard cell culture conditions. On day 2, 1 μl test compound (200× final concentration) is added and incubation continued for further 24 h. On day 3, the culture medium is discarded and attached cells fixed for 15 min at room temperature by addition of 100 μl fixation buffer (3.7% v:v formaldehyde in phosphate buffered saline/PBS). After discarding the fixation buffer and one wash with blocking solution (1% BSA, 0.3% Tween 20 in PBS), cells are permeabilized at room temperature by addition of 100 μl/well permeabilization buffer (30.8 mM NaCl, 0.54 mM Na2HPO4, 0.31 mM KH2PO4, 0.1% v:v Triton X-100) for 15 min at room temperature. After discarding the permeabilization buffer and washing twice with 100 μl/well blocking solution at room temperature, the 1st antibody (anti-K^1-20 histone H3 antibody, Calbiochem No. 382158) in blocking solution (50 μl/well) is added. After incubation for 1 h at room temperature, the wells are washed twice at room temperature with 100 μl/well blocking solution before addition of the 2nd antibody (goat-anti-rabbit Alexa Fluor 488; MoBiTec No. A-11008) in blocking solution (50 μl/well). After further incubation for 1 h at room temperature, wells are washed twice with 100 μl/well blocking solution at room temperature. Finally, 100 μl/well PBS are added and image analysis performed on the Cellomics “ArrayScan II” platform. For EC50 determination, the percentage of positive cells showing nuclear fluorescence is determined and EC50 calculation done from concentration-effect curves by means of non-linear regression. For calibration, a positive (reference HDAC inhibitors like SAHA or NVP LBH-589) and a negative control were included.

A549 NSCLC cell line = assay: Cellular cytotoxicity assay (Alamar Blue), A549; format: cell-based; conditions: Homo sapiens
Procedure: (§1) The anti-proliferative activity of the chimeric HDAC and protein kinase inhibitory chimeric compounds of the present invention was evaluated using HeLa cervical carcinoma, A549 NSCLC, SKOV3 ovarian carcinoma, Cal27 head and neck cancer, K562 chronic myeloid leukemia (CML) and EOL1 acute hypereosinophilic myeloid leukemia, cell lines. For quantification of cellular proliferation/living cells the Alamar Blue (Resazurin) cell viability assay was applied (O'Brien et al. Eur Biochem. 267, 5421-5426, 2000). In this assay Resazurin is reduced to the fluorescent resorufin by cellular dehydrogenase activity, correlating with viable, proliferating cells. The examples were dissolved as 20 mM solutions in dimethylsulfoxide (DMSO) and subsequently diluted in semi-logarithmic steps. Cell lines were seeded at respective density into 96 well flat bottom plates in a volume of 200 μl per well. 24 h after seeding 1 μl each of the compound dilutions were added into each well of the 96 well plate. Each compound dilution was tested as quadruplicates. Wells containing untreated control cells were filled with […] DMEM medium containing 0.5% v:v DMSO. The cells were then incubated with the substances for 72 h at 37° C. in a humidified atmosphere containing 5% carbon dioxide. To determine the viability of the cells, 20 μl of an Resazurin solution (Sigma; 90 mg/l) were added. After 4 h incubation at 37° C. the fluorescence was measured at an extinction of 544 nm and an emission of 590 nm. For the calculation of the cell viability the emission value from untreated cells was set as 100% viability and the emission rates of treated cells were set in relation to the values of untreated cells. Viabilities were expressed as % values. The corresponding IC50 values of the compounds for cytotoxic activity are determined from the concentration-effect curves by means of non-linear regression.

[2] = target: T1, recombinant HDAC1 isolated from HEK293 cells with heterologous HDAC1 expression (Homo sapiens, UniProt Q13547); assay: Fluorimetric rHDAC1 activity assay; format: biochemical; conditions: only a range of IC50 over the compounds given; read-out: rHDAC1 inhibitory activity IC50
T1 construct: made in house

EGFR/HER1 = target: T2, EGFR/HER1 (Homo sapiens, UniProt P00533); assay: Biochemical flash-plate based kinase assay, EGFR/HER1; conditions: only a range over the listed compounds is given; read-out: EGFR/HER1 inhibition IC50
T2 construct: EGFR/HER1 C-terminal kinase domain; made in house
Description: (§2) Active kinase proteins were either obtained from commercial suppliers (Abl, PDGF-Rβ ProQinase, Freiburg/Germany; AblT^315I: Millipore/Upstate, Billerica/USA; PKA: InvitroGen/Panvera, Carlsbad/USA) or prepared in-house (KDR, c-terminal kinase domain AA790-1356, HER2 c-terminal kinase domain, EGFR/HER1 C-terminal kinase domain). As substrates, poly-AGKY for Abl, AblT^315I and PDGF-Rβ (#P-1152 Sigma, Munich/Germany), poly-GluTyr for KDR, HER2 and EGFR/HER1 (#P-0275, Sigma, Munich/Germany) or a PKA substrate peptide for PKA (#12-394, Millipore/Upstate, Billerica/USA) were used. Into each well of a 96-well flashplate (#SMP-200 in the case of Abl, Abl T^315I, PDGF-Rβ, EGFR, HER2 and KDR, #SMP-103 in the case of PKA; Perkin Elmer, Waltham/USA) kinase protein was diluted into kinase assay buffer (50 mM HEPES pH 7.5, 3 mM MgCl2, 3 mM MnCl2, 1 mM DTT, 3 μM sodium orthovanadate, 5 μg/ml PEG 8000) containing the appropriate substrate (final volume 89 μl). DMSO vehicle or compounds are added as 1 μl/well prior to the initiation of the kinase reaction by 10 μl 1 mM [^33P]-γATP (4×10^5 cpm). Reactions were allowed to proceed for a time predetermined to be linear on a time versus phosphorylation plot (30 min for PKA, otherwise 80 min) and terminated with the addition of an equal volume of phosphoric acid (2% H3PO4 for 5 minutes). Plates were washed three times with 0.9% w/v NaCl and quantitated by liquid scintillation counting.

[3] = system: HeLa cervical carcinoma cell line; assay: Cellular cytotoxicity assay (Alamar Blue), HeLa; format: cell-based; conditions: Homo sapiens, 72 h
Procedure: as §1

Protein kinase A (PKA) = target: T3, Protein kinase A (PKA) (Homo sapiens, UniProt P17612); assay: Biochemical flash-plate based kinase assay, PKA
T3 construct: purchased InvitroGen/Panvera, Carlsbad/USA
Description: as §2

HER2 = target: T4, HER2 (Homo sapiens, UniProt P04626); assay: Biochemical flash-plate based kinase assay, HER2; conditions: only a range over the listed compounds is given; read-out: HER2 inhibition IC50
T4 construct: HER2 c-terminal kinase domain; made in house
Description: as §2, with “Reactions were allowed to proceed for a time predetermined to be linear on a time versus phosphorylation plot (30 min for PKA, otherwise 80 min) and terminated with the addition of an equal volume of phosphoric acid (2% H3PO4 for 5 minutes).” left out

PDGFRβ = target: T5, PDGFRβ (Homo sapiens, UniProt P09619); assay: Biochemical flash-plate based kinase assay, PDGFRβ; conditions: only a range over the listed compounds is given; read-out: PDGFRβ inhibition IC50
T5 construct: purchased ProQinase, Freiburg/Germany
Description: as §2

[4] = system: K562 chronic myeloid leukemia (CML) cell line; assay: Cellular cytotoxicity assay (Alamar Blue), K562; format: cell-based; conditions: Homo sapiens, 72 h, only a range over the listed compounds is given, read-out: Cytotoxicity towards K562 CML cell line IC50
Procedure: as §1

Bcr-abl T^315I = target: T6, Bcr-abl T^315I (Homo sapiens, UniProt P00519, T315I); assay: Biochemical flash-plate based kinase assay, Bcr-abl T315I; conditions: only a range over the listed compounds is given; read-out: Bcr-abl T^315I inhibition IC50
T6 construct: purchased Millipore/Upstate, Billerica/USA
Description: as §2

Bcr-abl (wt) = target: T7, Bcr-abl (wt) (Homo sapiens, UniProt P00519); assay: Biochemical flash-plate based kinase assay, Bcr-abl (wt); conditions: only a range over the listed compounds is given; read-out: Bcr-abl (wt) inhibition IC50
T7 construct: purchased ProQinase, Freiburg/Germany
T7 sequence (P00519 118-553 limits assumed): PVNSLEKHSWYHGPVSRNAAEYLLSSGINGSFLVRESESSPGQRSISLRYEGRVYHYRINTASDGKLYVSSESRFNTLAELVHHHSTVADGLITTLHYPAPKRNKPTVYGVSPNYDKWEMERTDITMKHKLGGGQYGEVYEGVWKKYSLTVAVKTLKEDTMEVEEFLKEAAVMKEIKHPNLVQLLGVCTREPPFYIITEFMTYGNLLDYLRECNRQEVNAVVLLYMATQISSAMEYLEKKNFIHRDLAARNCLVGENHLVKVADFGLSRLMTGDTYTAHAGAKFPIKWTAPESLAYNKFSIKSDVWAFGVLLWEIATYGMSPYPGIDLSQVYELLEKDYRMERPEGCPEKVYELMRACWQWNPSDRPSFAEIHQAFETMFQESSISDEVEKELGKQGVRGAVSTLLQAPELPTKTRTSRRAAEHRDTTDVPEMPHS
Description: as §2

[5] = system: EOL1 acute hypereosinophilic myeloid leukemia cell line; assay: Cellular cytotoxicity assay (Alamar Blue), EOL1; format: cell-based; conditions: Homo sapiens, 72 h, only a range over the listed compounds is given, read-out: Cytotoxicity towards EOL1 cell line IC50
Procedure: as §1

[6] = system: Cal27 head and neck cancer cell line; assay: Cellular cytotoxicity assay (Alamar Blue), Cal27; format: cell-based; conditions: Homo sapiens, CAL-27; 72 h; only a range over the listed compounds is given; read-out: Cytotoxicity towards Cal27 cell line IC50
Procedure: as §1

[7] = system: SKOV3 ovarian carcinoma cell line; assay: Cellular cytotoxicity assay (Alamar Blue), SKOV3; format: cell-based; conditions: Homo sapiens, SK-OV-3; 72 h; only a range over the listed compounds is given; read-out: Cytotoxicity towards SKOV3 cell line IC50
Procedure: as §1

T1 sequence (Q13547 whole entry): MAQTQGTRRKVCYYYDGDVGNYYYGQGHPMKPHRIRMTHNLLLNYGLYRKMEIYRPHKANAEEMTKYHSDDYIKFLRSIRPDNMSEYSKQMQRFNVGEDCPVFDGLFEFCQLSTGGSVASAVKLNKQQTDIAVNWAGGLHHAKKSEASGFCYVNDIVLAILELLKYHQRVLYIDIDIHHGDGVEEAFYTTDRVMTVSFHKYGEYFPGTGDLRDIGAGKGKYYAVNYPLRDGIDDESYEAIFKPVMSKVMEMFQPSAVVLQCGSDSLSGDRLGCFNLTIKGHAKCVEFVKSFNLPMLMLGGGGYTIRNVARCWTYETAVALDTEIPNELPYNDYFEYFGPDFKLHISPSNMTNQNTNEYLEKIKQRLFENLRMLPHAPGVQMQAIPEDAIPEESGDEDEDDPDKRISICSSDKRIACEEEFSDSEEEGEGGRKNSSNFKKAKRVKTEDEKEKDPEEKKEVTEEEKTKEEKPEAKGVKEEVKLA
T2 sequence (P00533 712-979 limits assumed): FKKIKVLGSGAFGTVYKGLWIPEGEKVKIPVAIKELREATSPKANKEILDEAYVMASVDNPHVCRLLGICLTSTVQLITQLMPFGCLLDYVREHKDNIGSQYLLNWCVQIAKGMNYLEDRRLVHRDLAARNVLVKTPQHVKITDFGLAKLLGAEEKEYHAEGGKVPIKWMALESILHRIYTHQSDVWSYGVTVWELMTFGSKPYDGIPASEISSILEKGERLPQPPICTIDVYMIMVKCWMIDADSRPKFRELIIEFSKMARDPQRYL
T4 sequence (P04626 720-987 limits assumed): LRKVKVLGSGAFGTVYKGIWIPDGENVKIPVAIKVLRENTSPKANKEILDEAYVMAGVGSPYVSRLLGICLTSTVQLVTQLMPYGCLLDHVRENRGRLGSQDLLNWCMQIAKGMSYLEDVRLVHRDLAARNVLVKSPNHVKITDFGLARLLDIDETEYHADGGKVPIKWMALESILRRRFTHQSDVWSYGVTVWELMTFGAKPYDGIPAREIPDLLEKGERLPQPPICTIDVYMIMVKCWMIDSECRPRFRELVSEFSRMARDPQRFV
T5 sequence (P09619 33-1106): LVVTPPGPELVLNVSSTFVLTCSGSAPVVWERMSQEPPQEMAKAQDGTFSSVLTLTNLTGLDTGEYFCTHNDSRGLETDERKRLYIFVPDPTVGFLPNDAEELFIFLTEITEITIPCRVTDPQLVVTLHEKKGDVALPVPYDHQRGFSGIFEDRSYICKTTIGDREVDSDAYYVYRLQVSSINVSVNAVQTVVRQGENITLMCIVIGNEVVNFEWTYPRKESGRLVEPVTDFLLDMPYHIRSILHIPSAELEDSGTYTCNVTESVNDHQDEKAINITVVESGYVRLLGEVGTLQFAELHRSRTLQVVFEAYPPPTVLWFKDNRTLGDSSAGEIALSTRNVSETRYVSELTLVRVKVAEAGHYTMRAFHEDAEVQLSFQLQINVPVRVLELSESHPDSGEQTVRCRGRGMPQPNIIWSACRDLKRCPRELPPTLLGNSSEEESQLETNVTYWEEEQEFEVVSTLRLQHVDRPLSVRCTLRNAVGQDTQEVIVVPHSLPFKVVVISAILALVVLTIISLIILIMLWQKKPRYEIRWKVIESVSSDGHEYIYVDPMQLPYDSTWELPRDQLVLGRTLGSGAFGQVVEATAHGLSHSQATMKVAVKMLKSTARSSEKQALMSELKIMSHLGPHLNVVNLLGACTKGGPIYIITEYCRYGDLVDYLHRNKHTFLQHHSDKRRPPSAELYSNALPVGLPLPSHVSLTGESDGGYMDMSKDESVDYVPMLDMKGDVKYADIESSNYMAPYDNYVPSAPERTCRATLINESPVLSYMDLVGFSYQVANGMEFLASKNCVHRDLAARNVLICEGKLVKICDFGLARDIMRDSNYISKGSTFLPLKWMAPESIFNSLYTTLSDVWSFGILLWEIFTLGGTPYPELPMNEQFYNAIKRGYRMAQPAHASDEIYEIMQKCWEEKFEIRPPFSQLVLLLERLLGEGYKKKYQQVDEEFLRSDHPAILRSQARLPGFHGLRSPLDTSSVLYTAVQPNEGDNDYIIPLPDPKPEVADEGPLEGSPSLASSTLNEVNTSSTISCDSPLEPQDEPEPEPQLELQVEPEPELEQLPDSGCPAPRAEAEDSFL

SMILES: O=C(/C=C/c1ccc(-c2ccc3ncnc(Nc4ccc(OCc5cccc(F)c5)c(Cl)c4)c3c2)o1)NO [[2], E-3-(5-{4-[3-Chloro-4-(3-fluorobenzyloxy)-phenylamino]quinazolin-6-yl}furan-2-yl)-N-hydroxy-acrylamide hydrochloride monohydrate]
EC50 [1]: ≥ 3650 nM | IC50 (A549 NSCLC cell line; A549, 72 h, read-out: Cytotoxicity towards A549 NSCLC cell line IC50 (M)): ≥ 1.1e-06 M | IC50 [2]: ≥ 35.3 nM | IC50 (EGFR/HER1): 2.2 to 150 nM

SMILES: O=C(NO)c1ccc(-c2ccc3ncnc(Nc4ccc(OCc5cccc(F)c5)c(Cl)c4)c3c2)s1 [[4], 5-{4-[3-Chloro-4-(3-fluorobenzyloxy)phenyl-amino]quinazolin-6-yl}thiophene-2-carboxylic acid hydroxyamide hydrochloride dihydrate]
EC50 [1]: ≥ 3650 nM | IC50 (EGFR/HER1): 2.2 to 150 nM

SMILES: O=C(NO)c1ccc(-c2ccc3ncnc(Nc4ccc(OCc5cccc(F)c5)c(Cl)c4)c3c2)o1 [[6], 5-{4-[3-Chloro-4-(3-fluorobenzyloxy)phenylamino]-quinazolin-6-yl}furan-2-carboxylic acid hydroxyamide hydrochloride monohydrate]
IC50 ([3]; read-out: Cytotoxicity towards HeLa cervical cell line IC50 (M)): 9.1e-07 to 9.4e-06 M | EC50 [1]: ≥ 3650 nM | IC50 [2]: ≥ 35.3 nM | IC50 (Protein kinase A (PKA)): 85000 nM | IC50 (HER2): 2 to 740 nM

SMILES: O=C(/C=C/c1ccc(-c2ccc3ncnc(Nc4ccc(OCc5cccc(F)c5)c(Cl)c4)c3c2)s1)NO [[7], E-3-(5-{4-[3-Chloro-4-(3-fluorobenzyloxy)-phenylamino]quinazolin-6-yl}thiophene-2-yl)-N-hydroxy-acrylamide hydrochloride monohydrate]
IC50 (Protein kinase A (PKA)): 35000 nM

Now from value to molecule, other results behind:

IC50 (PDGFRβ): 2100 to 71000 nM | IC50 (Bcr-abl T^315I): 1000 to 34000 nM | IC50 (Bcr-abl (wt)): 2000 to 39000 nM
SMILES: Cc1ccc(NCc2ccc(C(=O)Nc3ccccc3N)cc2)cc1Nc1nccc(-c2cccnc2)n1 [[15], N-(2-Amino-phenyl)-4-{[4-methyl-3-(4-pyridin-3-yl-pyrimidin-2-ylamino)-phenylamino]-methyl}-benzamide]
IC50 ([3]; only a range over the listed compounds is given, read-out: Cytotoxicity towards HeLa cervical cell line IC50): ≥ 1.15e-06 M | IC50 [4]: 490 to 4070 nM | IC50 (A549 NSCLC cell line; A549, 72 h, only a range over the listed compounds is given, read-out: Cytotoxicity towards A549 NSCLC cell line IC50): ≥ 2.95e-06 M

IC50 (PDGFRβ): 2100 to 71000 nM | IC50 [2]: 77 to 1400 nM | IC50 (Bcr-abl T^315I): 1000 to 34000 nM | IC50 (Bcr-abl (wt)): 2000 to 39000 nM
SMILES: Cc1ccc(NC(=O)c2ccc(/C=C/C(=O)NO)cc2)cc1Nc1nc(-c2cccnc2)cs1 [[19], (E)-4-(3-(hydroxyamino)-3-oxoprop-1-enyl)-N-(4-methyl-3-(4-(pyridin-3-yl)thiazol-2-ylamino)phenyl)benzamide]
IC50 [5]: 3 to 780 nM

melting point: 204.6 °C (dec.) | IC50 (Bcr-abl T^315I): 1000 to 34000 nM | IC50 (Protein kinase A (PKA)): 38000 nM
SMILES: CN(C(=O)c1ccc(C(=O)Nc2ccccc2N)cc1)c1cccc(Nc2nccc(-c3cccnc3)n2)c1 [[30], N-(2-Amino-phenyl)-N′-methyl-N′-[3-(4-pyridin-3-yl-pyrimidin-2-ylamino)-phenyl]-terephthalamide]

melting point: 213 to 216 °C | IC50 (EGFR/HER1): 2.2 to 150 nM
SMILES: C#Cc1cccc(Nc2ncnc3ccc(NC(=O)c4ccc(C(=O)Nc5ccccc5N)nc4)cc23)c1 [[36], N^2-(2-aminophenyl)-N^5-(4-(3-ethynylphenylamino)-quinazolin-6-yl)pyridine-2,5-dicarboxamide]
IC50 [6]: 160 to 8000 nM

IC50 (HER2): 2 to 740 nM
SMILES: C#Cc1cccc(Nc2ncnc3cc(NC(=O)c4ccc(C(=O)Nc5ccccc5N)nc4)ccc23)c1 [[39], Pyridine-2,5-dicarboxylic acid 2-[(2-amino-phenyl)-amide]-5-{[4-(3-ethynyl-phenylamino)-quinazolin-7-yl]-amide}]
IC50 [7]: ≥ 560 nM
